Measured values: ChEMBL document CHEMBL1149262, “Monoamine transporter binding, locomotor activity, and drug discrimination properties of 3-(4-substituted-phenyl)tropane-2-carboxylic acid methyl ester isomers” (J Med Chem, 2004)
Calls of active or inactive are those of the source. No cut-off for these calls is given here.

Columns and labels:
[1] = test system: Rattus norvegicus; test: Cocaine discrimination in ip dosed CD Albino rat; type: functional
[2] = test system: Rattus norvegicus; test: Drug discrimination effect in CD Albino rat assessed as percent of rat choosing cocaine lever at 1 mg/kg, ip; type: functional; conditions: route intraperitoneal
[3] = test system: Rattus norvegicus; test: Drug discrimination effect in CD Albino rat assessed as percent of rat choosing cocaine lever at 1.7 mg/kg, ip; type: functional; conditions: route intraperitoneal
[4] = test system: Rattus norvegicus; test: Drug discrimination effect in CD Albino rat assessed as percent of rat choosing cocaine lever at 3 mg/kg, ip; type: functional; conditions: route intraperitoneal
[5] = test system: Rattus norvegicus; test: Drug discrimination effect in CD Albino rat assessed as percent of rat choosing cocaine lever at 5.6 mg/kg, ip; type: functional; conditions: route intraperitoneal
[6] = test system: Rattus norvegicus; test: Drug discrimination effect in CD Albino rat assessed as percent of rat choosing cocaine lever at 10 mg/kg, ip; type: functional; conditions: route intraperitoneal
[7] = test system: Mus musculus; test: Activity in CD1 mouse assessed as hyperactivity at 10 mg/kg, ip after 4 hrs; type: functional, organism-based; parameters: dose 10 mg/kg
[8] = test system: Mus musculus; test: Activity in CD1 mouse assessed as hyperactivity at 100 mg/kg, ip after 4 hrs; type: functional, organism-based; parameters: dose 100 mg/kg
[9] = test system: Mus musculus; test: Activity in CD1 mouse assessed as stereotypy at 100 mg/kg, ip after 4 hrs; type: functional, organism-based; parameters: dose 100 mg/kg
[10] = test system: Mus musculus; test: Activity in CD1 mouse assessed as convulsions at 100 mg/kg, ip after 4 hrs; type: functional, organism-based; parameters: dose 100 mg/kg
[11] = test system: Mus musculus; test: Locomotor activity in ip dosed CD1 mouse in peak hour; type: functional
[12] = test system: Mus musculus; test: Locomotor activity in CD1 mouse assessed as stimulation at 3 mg/kg, ip after 1 hr relative to control; type: functional; conditions: route intraperitoneal
[13] = test system: Mus musculus; test: Locomotor activity in CD1 mouse assessed as stimulation at 3 mg/kg, ip after 2 hrs relative to control; type: functional; conditions: route intraperitoneal
[14] = test system: Mus musculus; test: Locomotor activity in CD1 mouse assessed as stimulation at 3 mg/kg, ip after 3 hrs relative to control; type: functional; conditions: route intraperitoneal
[15] = test system: Mus musculus; test: Locomotor activity in CD1 mouse assessed as stimulation at 3 mg/kg, ip after 4 hrs relative to control; type: functional; conditions: route intraperitoneal
[16] = test system: Mus musculus; test: Locomotor activity in CD1 mouse assessed as stimulation at 10 mg/kg, ip after 1 hr relative to control; type: functional; conditions: route intraperitoneal
[17] = test system: Mus musculus; test: Locomotor activity in CD1 mouse assessed as stimulation at 10 mg/kg, ip after 2 hrs relative to control; type: functional; conditions: route intraperitoneal
[18] = test system: Mus musculus; test: Locomotor activity in CD1 mouse assessed as stimulation at 10 mg/kg, ip after 3 hrs relative to control; type: functional; conditions: route intraperitoneal
[19] = test system: Mus musculus; test: Locomotor activity in CD1 mouse assessed as stimulation at 10 mg/kg, ip after 4 hrs relative to control; type: functional; conditions: route intraperitoneal
[20] = test system: Mus musculus; test: Locomotor activity in CD1 mouse assessed as stimulation at 30 mg/kg, ip after 1 hr relative to control; type: functional; conditions: route intraperitoneal
[21] = test system: Mus musculus; test: Locomotor activity in CD1 mouse assessed as stimulation at 30 mg/kg, ip after 2 hrs relative to control; type: functional; conditions: route intraperitoneal
[22] = test system: Mus musculus; test: Locomotor activity in CD1 mouse assessed as stimulation at 30 mg/kg, ip after 3 hrs relative to control; type: functional; conditions: route intraperitoneal
[23] = test system: Mus musculus; test: Locomotor activity in CD1 mouse assessed as stimulation at 30 mg/kg, ip after 4 hrs relative to control; type: functional; conditions: route intraperitoneal
[24] = test system: Mus musculus; test: Locomotor activity in CD1 mouse assessed as stimulation at 100 mg/kg, ip after 1 hr relative to control; type: functional; conditions: route intraperitoneal
[25] = test system: Mus musculus; test: Locomotor activity in CD1 mouse assessed as stimulation at 100 mg/kg, ip after 2 hrs relative to control; type: functional; conditions: route intraperitoneal
[26] = test system: Mus musculus; test: Locomotor activity in CD1 mouse assessed as stimulation at 100 mg/kg, ip after 3 hrs relative to control; type: functional; conditions: route intraperitoneal
[27] = test system: Mus musculus; test: Locomotor activity in CD1 mouse assessed as stimulation at 100 mg/kg, ip after 4 hrs relative to control; type: functional; conditions: route intraperitoneal
[28] = test system: Mus musculus; test: Locomotor activity in CD1 mouse assessed as stimulation at 0.3 mg/kg, ip after 1 hr relative to control; type: functional; conditions: route intraperitoneal
[29] = test system: Mus musculus; test: Locomotor activity in CD1 mouse assessed as stimulation at 0.3 mg/kg, ip after 2 hrs relative to control; type: functional; conditions: route intraperitoneal
[30] = test system: Mus musculus; test: Locomotor activity in CD1 mouse assessed as stimulation at 0.3 mg/kg, ip after 3 hrs relative to control; type: functional; conditions: route intraperitoneal
[31] = test system: Mus musculus; test: Locomotor activity in CD1 mouse assessed as stimulation at 0.3 mg/kg, ip after 4 hrs relative to control; type: functional; conditions: route intraperitoneal
[32] = test system: Mus musculus; test: Locomotor activity in CD1 mouse assessed as stimulation at 1 mg/kg, ip after 1 hr relative to control; type: functional; conditions: route intraperitoneal
[33] = test system: Mus musculus; test: Locomotor activity in CD1 mouse assessed as stimulation at 1 mg/kg, ip after 2 hrs relative to control; type: functional; conditions: route intraperitoneal
[34] = test system: Mus musculus; test: Locomotor activity in CD1 mouse assessed as stimulation at 1 mg/kg, ip after 3 hrs relative to control; type: functional; conditions: route intraperitoneal
[35] = test system: Mus musculus; test: Locomotor activity in CD1 mouse assessed as stimulation at 1 mg/kg, ip after 4 hrs relative to control; type: functional; conditions: route intraperitoneal
[36] = test system: Mus musculus; test: Locomotor activity in CD1 mouse assessed as stimulation at 0.1 mg/kg, ip after 1 hr relative to control; type: functional; conditions: route intraperitoneal
[37] = test system: Mus musculus; test: Locomotor activity in CD1 mouse assessed as stimulation at 0.1 mg/kg, ip after 2 hrs relative to control; type: functional; conditions: route intraperitoneal
[38] = test system: Mus musculus; test: Locomotor activity in CD1 mouse assessed as stimulation at 0.1 mg/kg, ip after 3 hrs relative to control; type: functional; conditions: route intraperitoneal
[39] = test system: Mus musculus; test: Locomotor activity in CD1 mouse assessed as stimulation at 0.1 mg/kg, ip after 4 hrs relative to control; type: functional; conditions: route intraperitoneal
[40] = test system: Rattus norvegicus; test: Drug discrimination effect in CD Albino rat assessed as percent of rat choosing cocaine lever at 0.17 mg/kg, ip; type: functional; conditions: route intraperitoneal
[41] = test system: Rattus norvegicus; test: Drug discrimination effect in CD Albino rat assessed as percent of rat choosing cocaine lever at 0.3 mg/kg, ip; type: functional; conditions: route intraperitoneal
[42] = test system: Mus musculus; test: Activity in CD1 mouse assessed as hyperactivity at 1 mg/kg, ip after 4 hrs; type: functional, organism-based; parameters: dose 1 mg/kg
[43] = test system: Mus musculus; test: Activity in CD1 mouse assessed as stereotypy at 1 mg/kg, ip after 4 hrs; type: functional, organism-based; parameters: dose 1 mg/kg
[44] = test system: Mus musculus; test: Activity in CD1 mouse assessed as circling at 1 mg/kg, ip after 4 hrs; type: functional, organism-based; parameters: dose 1 mg/kg
[45] = test system: Mus musculus; test: Activity in CD1 mouse assessed as stereotypy at 10 mg/kg, ip after 4 hrs; type: functional, organism-based; parameters: dose 10 mg/kg
[46] = test system: Mus musculus; test: Activity in CD1 mouse assessed as straub tail at 100 mg/kg, ip after 4 hrs; type: functional, organism-based; parameters: dose 100 mg/kg
[47] = test system: Mus musculus; test: Activity in CD1 mouse assessed as hind limb splay at 100 mg/kg, ip after 4 hrs; type: functional, organism-based; parameters: dose 100 mg/kg; conditions: Hindlimb
[48] = biological target: Sodium-dependent dopamine transporter (Homo sapiens, UniProt Q01959); test: Displacement of [3H]WIN-35428 from DAT
[49] = test system: Rattus norvegicus; test: Drug discrimination effect in CD Albino rat assessed as percent of rat choosing cocaine lever at 0.1 mg/kg, ip; type: functional; conditions: route intraperitoneal
[50] = test system: Mus musculus; test: Activity in CD1 mouse assessed as slight or intermittent hyperactivity at 10 mg/kg, ip after 4 hrs; type: functional, organism-based; parameters: dose 10 mg/kg
[51] = test system: Mus musculus; test: Activity in CD1 mouse assessed as circling at 100 mg/kg, ip after 4 hrs; type: functional, organism-based; parameters: dose 100 mg/kg
[52] = biological target: Sodium-dependent noradrenaline transporter (Homo sapiens, UniProt P23975); test: Displacement of [3H]nisoxetine from NET
Sequence of Sodium-dependent noradrenaline transporter (P23975 whole entry): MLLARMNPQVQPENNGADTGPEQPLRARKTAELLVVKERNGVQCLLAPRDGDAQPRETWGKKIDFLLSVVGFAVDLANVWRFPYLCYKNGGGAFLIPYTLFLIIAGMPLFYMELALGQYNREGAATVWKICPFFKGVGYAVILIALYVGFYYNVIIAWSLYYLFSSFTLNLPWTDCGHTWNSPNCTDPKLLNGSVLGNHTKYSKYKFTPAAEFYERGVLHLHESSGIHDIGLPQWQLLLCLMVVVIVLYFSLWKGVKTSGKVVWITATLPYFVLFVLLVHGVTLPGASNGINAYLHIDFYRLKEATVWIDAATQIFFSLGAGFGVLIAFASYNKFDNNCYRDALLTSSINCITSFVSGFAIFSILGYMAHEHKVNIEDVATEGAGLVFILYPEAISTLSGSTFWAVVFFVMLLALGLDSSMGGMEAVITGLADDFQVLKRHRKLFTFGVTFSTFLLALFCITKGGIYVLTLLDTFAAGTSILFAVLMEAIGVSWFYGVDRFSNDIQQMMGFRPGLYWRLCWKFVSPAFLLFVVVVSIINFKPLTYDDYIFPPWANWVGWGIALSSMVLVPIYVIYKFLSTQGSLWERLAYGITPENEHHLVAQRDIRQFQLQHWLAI

Sequence of Sodium-dependent dopamine transporter (Q01959 whole entry): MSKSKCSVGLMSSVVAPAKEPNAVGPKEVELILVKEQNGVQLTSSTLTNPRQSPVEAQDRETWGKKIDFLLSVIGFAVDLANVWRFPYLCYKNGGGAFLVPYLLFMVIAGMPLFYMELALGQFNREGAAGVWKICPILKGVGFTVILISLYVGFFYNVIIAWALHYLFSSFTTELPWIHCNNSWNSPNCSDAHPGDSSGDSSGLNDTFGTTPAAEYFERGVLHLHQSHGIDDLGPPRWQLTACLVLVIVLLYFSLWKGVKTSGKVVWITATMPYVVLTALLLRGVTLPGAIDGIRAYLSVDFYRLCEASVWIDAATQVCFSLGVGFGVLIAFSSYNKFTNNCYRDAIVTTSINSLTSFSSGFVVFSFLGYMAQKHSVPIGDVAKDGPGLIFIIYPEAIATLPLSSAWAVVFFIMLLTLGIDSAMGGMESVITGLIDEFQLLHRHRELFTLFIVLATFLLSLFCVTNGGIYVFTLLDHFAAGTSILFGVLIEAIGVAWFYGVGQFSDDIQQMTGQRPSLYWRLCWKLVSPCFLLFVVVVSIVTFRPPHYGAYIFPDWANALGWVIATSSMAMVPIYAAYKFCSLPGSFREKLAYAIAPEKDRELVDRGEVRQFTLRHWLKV

COC(=O)[C@H]1[C@@H](OC(=O)c2ccccc2)C[C@@H]2CC[C@H]1N2C [COCAINE]
ED50 [1]: 2.44 mg/kg | Activity [2]: 21% | Activity [3]: 32% | Activity [4]: 59% | Activity [5]: 82% | Activity [6]: 97% | Activity [7]: Active | Activity [8]: Active | Activity [9]: Active | Activity [10]: Active | ED50 [11]: 10 mg/kg | Activity [12]: 27% | Activity [13]: 14% | Activity [14]: -17% | Activity [15]: -9% | Activity [16]: 127% | Activity [17]: 24% | Activity [18]: 10% | Activity [19]: -21% | Activity [20]: 341% | Activity [21]: 100% | Activity [22]: -10% | Activity [23]: 16% | Activity [24]: 269% | Activity [25]: 391% | Activity [26]: 255% | Activity [27]: 91%

COC(=O)C1C2CC[C@H](C[C@@H]1c1ccc(Cl)cc1)N2C (stereo not given in full)
Activity [28]: 462% | Activity [29]: 1426% | Activity [30]: 1201% | Activity [31]: 235% | Activity [32]: 645% | Activity [33]: 958% | Activity [34]: 1892% | Activity [35]: 1507% | Activity [36]: -26% | Activity [37]: 53% | Activity [38]: 91% | Activity [39]: 17% | ED50 [1]: 0.13 mg/kg | Activity [40]: 44% | Activity [41]: 100% | Activity [42]: Active | Activity [43]: Active | Activity [44]: Active | Activity [45]: Active | Activity [9]: Active | Activity [46]: Active | Activity [47]: Active | IC50 [48]: 1.1 nM | ED50 [11]: 0.2 mg/kg | Activity [12]: 416% | Activity [13]: -36% | Activity [14]: 589% | Activity [15]: 1643% | Activity [49]: 50%

COC(=O)[C@@H]1C2CCC(C[C@H]1c1ccccc1)N2C (stereo not given in full)
ED50 [1]: 3.19 mg/kg | Activity [4]: 13% | Activity [5]: 100% | Activity [6]: 100% | Activity [45]: Active | Activity [50]: Active | Activity [8]: Active | Activity [9]: Active | Activity [51]: Active | IC50 [48]: 101 nM | IC50 [52]: 541 nM | Ki [52]: 271 nM | ED50 [11]: 21.8 mg/kg | Activity [12]: -30% | Activity [13]: -39% | Activity [14]: -35% | Activity [15]: 12% | Activity [16]: 43% | Activity [17]: 6% | Activity [18]: -13% | Activity [19]: 6% | Activity [20]: 161% | Activity [21]: 17% | Activity [22]: 47% | Activity [23]: 97% | Activity [24]: 338% | Activity [25]: 191% | Activity [26]: 234% | Activity [27]: 390%
